Results as given in US5854004A, “Process for screening substances capable of modulating a receptor-dependent cellular signal transmission path” (Boehringer Ingleheim GmbH, priority 1991, dated 1998).

Legend:
[1] = biological target: T1, human dopamine D1-receptor (Homo sapiens, UniProt P21728); assay: Induction of pADneo2-C6-BGL (CRE) via dopamine-D1-receptor in co-transfected COS-7 cells
[2] = tested on: A549 cells; assay: Induction of TRE-sensor-DNA (luciferase) in transiently transfected pretest cells, A549
Experimental: (§1) Approximately 1×10^7 cells per transfection were detached from the surface of the culture dish using trypsin and centrifuged for 5 minutes at 1200 rpm at ambient temperature (Heraeus Minifuge), washed once with 5 ml of serum-free medium, centrifuged for 5 minutes at 1200 rpm and suspended in 1 ml of serum-free medium. Then the cells were mixed with 250 μg/ml DEAE-dextrane, 5 μg plasmid DNA and 50 μg/ml chloroquin, incubated for 30 minutes at 37° C., washed once with medium containing no FCS and incubated overnight at 37° C. with 10 ml of fresh serum-containing medium. Then the medium was changed and after 4 hours the cells were induced, either with 10 ng TPA/ml medium or with 20 μM forskolin. […] The cells were lysed by the addition of 100 μl lysing buffer (1% Triton X-100, 25 mM glycylglycine pH 7.8, 15 mM MgSO4, 4 mM EDTA and 1 mM […]), the lysate was centrifuged for 5 minutes and the supernatant was transferred into a fresh test tube. […] The measuring time for light emission was 10 seconds.
(§2) The cell lines A549, HeLa and COS-7 were transiently transfected as described above by the addition of plasmid pBHluc1.3 and induced by the addition of TPA. Cells which were only transfected but not induced were used as a negative control.
(§3) The cell lines A549, HeLa and COS-7 were transiently transfected by the addition of plasmid pADneo(3TRE)BGluci and induced by the addition of TPA or forskolin. Once again, cells which were only transfected but not induced were used as a negative control.
(§4) The cell lines COS-7 and A549 were transiently transfected by the addition of plasmid pADneo(3×TREd16)BGluci, pADneo(3×TREd21)BGluci, pADneo(3×TREd24)BGluci, pADneo(3×TREd34)BGluci, pADneo(6×TREd16)BGluci, pADneo(6×TREd21)BGluci, pADneo(6×TREd24)BGluci or pADneo(6×TREd34)BGluci and induced by the addition of TPA or forskolin.

[3] = tested on: HeLa cells; assay: Induction of TRE-sensor-DNA (luciferase) in transiently transfected pretest cells, HeLa; settings: 18 h
Experimental: as §1, §2, §3

[4] = tested on: COS-7 cells; assay: Induction of TRE-sensor-DNA (luciferase) in transiently transfected pretest cells, COS-7
Experimental: as §1, §2, §3, §4

[5] = biological target: human muscarinic M3-receptor (Homo sapiens, UniProt P20309); assay type: cell-based
[6] = biological target: T1, human dopamine D1-receptor; assay: Induction of pBHluc1.3 (TRE) via dopamine-D1-receptor in co-transfected COS-7 cells; assay type: cell-based; settings: 10 ng/ml TPA or 1 μM apomorphine, 18 h
[7] = tested on: cell line A20; assay: Luciferase induction in stable TRE-pretest cell line A20 (A549, pBHluc1.3)
Experimental: In order to produce a stable (pre-)test cell line for substances which influence the expression of the luciferase gene by direct or receptor-mediated modulation of the IP3 /DAC-signal transduction pathway, A549 cells were simultaneously transfected with the plasmid pBHluc1.3 and the selection plasmid pRSVneo by electroporation as follows: after removal of the medium the cells were detached from the surface by means of a trypsin/PBS solution, suspended in medium and sedimented for 5 minutes at 250×g. […] 0.8 ml of cell suspension were combined with 20 μg of pBHluc1.3 and 2 μg of pRSVneo. Both plasmids had previously been linearised with BamHI.
(§5) 15-20 days after transfection, individual cell clones were transferred into 96-well microtitre plates and further cultivated. […] Approximately 40,000 cells in each clone were sown, in a procedure repeated 6 times, in 200 μl per well of a light-impervious 96-well microtitre plate coated with tissue culture (Microlite™, Dynatech Laboratories) and incubated overnight at 37° C. Three mixtures were treated with 10 ng TPA/ml and incubated for a further 8 hours. Then the medium was removed and the cells were washed twice with PBS.
(§6) The pretest cell line A20 was transfected, as described under a), by electroporation with the plasmid pAHyg-NK2, which had previously been linearised with BglII. From the day after transfection onwards, the cells were grown in selection medium, as used for the cell line A20 and additionally enriched with 150 μg/ml hygromycin B (Sigma). Individual clones were tested for inducibility of the luciferase activity as described under a).

[8] = biological target: T2, human neurokinin 2-receptor (Homo sapiens, UniProt P21452); assay: Luciferase activity in NK2-test cell line A20/NK2-122; settings: A20/NK2-122, depending on the dose
T2 sequence (P21452 1-398): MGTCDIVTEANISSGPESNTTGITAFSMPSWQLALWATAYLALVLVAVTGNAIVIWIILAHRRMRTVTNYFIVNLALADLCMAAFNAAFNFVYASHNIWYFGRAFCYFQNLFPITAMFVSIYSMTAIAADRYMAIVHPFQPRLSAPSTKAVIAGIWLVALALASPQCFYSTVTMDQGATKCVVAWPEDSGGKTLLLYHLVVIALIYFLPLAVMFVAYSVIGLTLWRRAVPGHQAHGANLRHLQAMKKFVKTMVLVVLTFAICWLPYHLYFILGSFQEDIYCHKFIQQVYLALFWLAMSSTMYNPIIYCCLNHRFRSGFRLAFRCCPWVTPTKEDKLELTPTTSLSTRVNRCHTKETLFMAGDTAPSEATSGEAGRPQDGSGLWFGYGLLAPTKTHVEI
Experimental: as §5
This Example illustrates the preparation of a test cell line for the human neurokinin 2 (NK2)-receptor which is coupled to the phospholipase C-signal transduction pathway. This test cell line makes it possible, by measurement of the luciferase activity, to identify substances which modulate the intracellular IP3 /DAG concentrations, depending on the receptor.
as §6

[9] = tested on: cell line CHO C6-13; assay: Luciferase expression in CRE-pretest cell line CHO C6-13; settings: 3 hours treatment, FIG. 33
Experimental: The transfection by electroporation was carried out as follows: after removal of the medium the cells were detached from the surface by means of a trypsin/PBS solution, suspended in medium and pelleted for 5 minutes at 250×g. The cells were washed in HBS (10 mM HEPES pH 7.4, 150 mM NaCl) and pelleted by centrifuging. The cells were suspended in HBS in a density of 1×10^7 cells/ml. 0.8 ml of cell suspension were mixed with 20 μg of DNA of the plasmid pADneo2-C6-BGL linearised with ScaI and transferred into an electroporation dish. […] After the electroporation the cells were diluted in the medium mentioned above, 20,000 cells per 90 mm culture dish was sown and incubated overnight at 37° C.
Two batches of each were treated with 20 μM forskolin and incubated for a further 5 hours at 37° C. Then the medium was removed from all the cells and the cells were washed with PBS.
Cells of the cell line CHO C6-13 were treated for 3 hours with various substances which alter the intracellular concentration of cAMP or IP3 /DAG or simulate a change in concentration, and also treated with receptor-specific agonists which influence the above-mentioned signal transduction mechanisms.

[10] = tested on: A549 cells; settings: Voraberger et al., 1991; cited from earlier work
[11] = biological target: T1, human dopamine D1-receptor; assay: Luciferase activity in dopamine D1-receptor test cell line CHO 13D1-38
Experimental: The cell line CHO C6-13 characterised above was transfected, as described under a), by electroporation with plasmid pAD-CMV2:D1, which had previously been linearised with FspI.
For the use of test cell lines in an automatic screening system with a high throughput rate it is advantageous to use microtitre plates having 96 wells per plate. For this purpose, 60,000 cells (CHO C6-13 or CHO 13D1-38) were sown in 200 μl medium per well in light-impermeable microtitre plates coated with tissue culture
(Microlite™, Dynatech Labroatories) and incubated overnight at 37° C. Then various chemicals were added to the cells and they were incubated for a certain length of time (usually 3 hours). After removal of the medium the cells were washed with PBS, lysed in 1% Triton X-100 and the luciferase activity was measured in a 96-well luminometer (ML-1000, Dynatech) (FIG. 36).
In order to simulate a screening process in which the test substances are preferably supplied in a uniform solvent, a final concentration of 1% DMSO was used in this experiment.

[12] = biological target: T3, human 5HT2-receptor (Homo sapiens, UniProt P28223); assay: Induction of pBHluc1.3 (TRE) via 5-HT2-receptor in co-transfected COS-7 cells; assay type: cell-based
Experimental: (§7) Induction was carried out with i) 20 μM forskolin (Sigma P8139), ii) 10 μα-methylserotonin-maleate (RBI M-110), and iii) 10 μα-methylserotonin-maleate and 10 μM ketanserin-tartrate (RBI S-006). […] It follows, from the above results, that, depending on 5-HT2 -receptors, only regulation elements which respond to IP3 /DAG (TRE), but not regulation elements which respond to cAMP (CRE) are selectively activated.

[13] = biological target: T3, human 5HT2-receptor; assay: Induction of pADneo2-C6-BGL (CRE) via 5-HT2-receptor in co-transfected COS-7 cells; assay type: cell-based; settings: 20 μM forskolin or 10 μ α-methylserotonin-maleate
Experimental: as §7

[14] = biological target: T3, human 5HT2-receptor; assay: cell-based; settings: read-out: induction of luciferase activity, clone A20/5HT2-11
Text: The human 5HT2-receptor is another example of a receptor coupled to the phospholipase C-signal transduction pathway. The TRE-cell line A20 is therefore also suitable in this case as a starting cell line for establishing a test cell line in order to discover substances which modulate the activity of the 5HT2-receptor.
The plasmid pAHyg-5HT2, linearised with BglII, was for this purpose transfected into the cell line A20 by electroporation as described under a) and grown in selection medium.
For this purpose the cells were simultaneously treated with a constant amount of serotonin (1 μg) and increasing amounts of antagonist.

[15] = 10 ng TPA/ml or 20 μM forskolin
[16] = COS-7, 10 ng TPA/ml or 20 μM forskolin, 18 h

CN1CCc2cc(Cl)c(O)cc2[C@@H](c2ccccc2)C1 [SCH23390]
prevention of agonist-mediated induction (CRE) ([1]; 1 μM apomorphine and 1 μM SCH23390): prevented

CCCCCCCCCCCCCC(=O)O[C@@H]1[C@@H](C)[C@@]2(O)[C@@H](C=C(CO)C[C@]3(O)C(=O)C(C)=C[C@@H]23)[C@@H]2C(C)(C)[C@]12OC(C)=O [TPA, phorbol-12-myristat-13-acetate]
induction of pADneo(6×TREdx)BGluci depending on spacing of TRE-elements ([2]; A549, 10 ng TPA/ml): higher when the spacing of the TRE-elements is smaller | induction of pADneo(nTREdx)BGluci, 6 versus 3 TRE-elements ([2]; A549, 10 ng TPA/ml): the induction with TPA for the constructions with 6 TRE-elements is greater than for the constructions with 3 TRE-elements | induction of pADneo(3TRE)BGluci ([2]; A549, 10 ng TPA/ml or 20 μM forskolin, 18 h): can be induced in the tested cells by TPA | fold induction at 0.01 µg/mL ([2]; Homo sapiens, A549, 18 h, read-out: induction of pBHluc1.3 (luciferase)): > 10 | induction of pADneo(3TRE)BGluci [3, 15]: can be induced in the tested cells by TPA | induction of pBHluc1.3 by TPA or forskolin [3, 15]: could also be induced by TPA | fold induction at 0.01 µg/mL ([3]; Homo sapiens, read-out: induction of pBHluc1.3 (luciferase)): > 10 | induction of pADneo(6×TREdx)BGluci depending on spacing of TRE-elements ([4]; COS-7, 10 ng TPA/ml): higher when the spacing of the TRE-elements is smaller | induction of pADneo(nTREdx)BGluci, 6 versus 3 TRE-elements ([4]; COS-7, 10 ng TPA/ml): the induction with TPA for the constructions with 6 TRE-elements is greater than for the constructions with 3 TRE-elements | induction of pADneo(3TRE)BGluci [4, 16]: can be induced in the tested cells by TPA | induction of pBHluc1.3 by TPA or forskolin [4, 16]: could also be induced by TPA | fold induction at 0.01 µg/mL ([4]; Primates, COS-7, 18 h, read-out: induction of pBHluc1.3 (luciferase)): > 10 | induction of luciferase expression [5]: induced both by TPA and by carbachol | induction of luciferase expression (TRE) [6]: induced by TPA | maximum induction of luciferase activity by TPA ([7]; A20, depending on the dose): ≤ 18 times | fold induction at 0.01 µg/mL ([7]; Homo sapiens, A549, 8 h, read-out: inducibility of luciferase activity, clone A20): 15 to 20 | maximum induction of luciferase activity by TPA [8]: ≤ 18 times | change in luciferase expression/activity [9]: did not bring about any significant change in the luciferase activity | induction of 1.3 kb ICAM-1 fragment / pBHluc1.3 [10]: can be induced by TPA

CN1CCc2cccc3c2[C@H]1Cc1ccc(O)c(O)c1-3 [apomorphine]
induction of luciferase expression (TRE) [6]: not by apomorphine | change in luciferase expression/activity [9]: did not bring about any significant change in the luciferase activity | increase in luciferase activity, clone CHO 13D1-38 ([11]; 10 μM apomorphine, 4 hours): highest increase in luciferase activity | concentration which brings about maximum induction of the luciferase reporter gene ([11]; apomorphine final concentration): 1 µM | time after stimulation at which increased luciferase activity was measured ([11]; apomorphine, FIG. 37A): one | time to maximum luciferase activation ([11]; apomorphine, FIG. 37A): 2.5 h | time up to which luciferase activation remained constant ([11]; apomorphine, FIG. 37A): 4 h | dependency of ED50 values on duration of receptor stimulation ([11]; apomorphine, FIG. 37B): no significant dependency | induction of luciferase expression (CRE) ([1]; COS-7, 20 μM forskolin or 1 μM apomorphine, 18 h): induced by forskolin and by apomorphine

O=C(c1ccc(F)cc1)C1CCN(CCn2c(=O)[nH]c3ccccc3c2=O)CC1 [ketanserin-tartrate]
prevention of agonist-mediated induction ([12]; 10 μM α-methylserotonin-maleate and 10 μM ketanserin-tartrate): prevented

CC(N)Cc1c[nH]c2ccc(O)cc12 (stereo not drawn) [α-methylserotonin-maleate]
induction of luciferase expression (TRE) ([12]; COS-7, 10 ng/ml TPA or 10 μg α-methylserotonin-maleate, 18 h): induced both by TPA and by α-methylserotonin-maleate | induction of luciferase expression (CRE) [13]: not by the 5-HT2-receptor-agonist α-methylserotonin-maleate | fold induction at 10 µM [14]: 4 to 5
